“Also recorded” adds a separate entry of the source. Read-outs that look alike come from different tables or passages of the source.
Columns and labels:
amyloid-β (1–42) (Aβ42) = target: T1, amyloid-β (1–42) (Aβ42) (Homo sapiens, UniProt P05067); test: Single molecule force spectroscopy / dynamic force spectroscopy (AFM) of Aβ-Aβ dimer dissociation, Friddle-De Yoreo model; type: binding; conditions: for change of Aβ-Aβ self-affinity / dimer dissociation constant by metal ion: 20 nM (nanomolar) metal ion vs aqueous HEPES buffer control; for change of association rate (kon) of Aβ-Aβ vs aqueous control: 20 nM metal ion, kon = koff/Kd; for Kd: read-out: chemical dissociation constant, Kd
T1 construct: purchased rPeptide (Bogart USA)
Source text: In this work we used single molecule force spectroscopy (SMFS) to further elucidate the mechanism of the very initial stage of amyloid aggregation—the dimerization of two peptides. SMFS is a nanoscale technique whereby an atomic force microscopy (AFM) tip is used to probe the unbinding of two molecules of interest—one bound to the surface, the other to the tip. When AFM tip is brought to the surface the binding between two Aβ monomers occur and when the tip is retracted the unbinding forces between two monomers are measured. To extract kinetic and thermodynamic parameters governing the system, the retraction velocity of the tip is varied. This iteration of SMFS is referred to as dynamic force spectroscopy (DFS).
We prepared our experiments in accordance with our previous force spectroscopy experiments, of which the methods are detailed extensively in [23]. Briefly, Veeco MLCT SiNi AFM cantilever were cleaned by soaking in ethanol and exposing to UV light for 30 minutes. […] The mica and cantilevers were then soaked for 3 hours in a solution of 3400 MW NHS-PEG-MAL (Laysan Bio, Alabaster GA) solution. […] The surface of the cantilever tip and mica surface were soaked in the Aβ solution for 30 minutes. Following rinsing, unreacted maleimide groups were quenched with b-merceptoethanol. Tips and mica were then rinsed and stored in HEPES buffer.
Typical cantilever spring constants were between 8 and 120 mN/m but varied with each individual experiment. Spring constants were measured using Hutter’s thermal noise method. A series of force curves were taken with an approach and retract velocity varying between 50 and 10,000 nm/s resulting in loading rates between 0.3 and 300 nN/s. Following the collection of an Aβ42 data set in HEPES buffer, a 20 nM metal ionic solution (Cu^2+ or Zn^2+) in HEPES buffer was added to the liquid cell of the AFM and additional force curves were collected for comparison.
JPK data analysis software was used to analyze force curves. […] The force curves were smoothed, the x-axis leveled, both axes set to 0, and the force curve corrected for cantilever bending to obtain tip-sample separation, z. A WLC fit was obtained for each force curve while rupture force and contour length data were recorded. Data was sorted in order of rupture force and the highest rupture force data were eliminated using Poisson statistics to eliminate force curves that were likely the result of simultaneous multiple unbinding events.
Loading rates were corrected to account for the effect of the PEG linker. We fit the Friddle-De Yoreo reversible binding equation to the entirety of the dataset (comprised of the rupture force and corrected loading rate of each force curve) using a Levenberg-Marquardt best fit algorithm in Origin 9.0 graphing software. For pooled datasets, we used the mean spring constant of the cantilevers used in the experiments. We extracted the equilibrium force, feq, the thermal scaling factor, fβ, and the kinetic off rate, koff(feq) at the equilibrium force as well as standard errors from the dataset using the graphing software. These parameters were then used to calculate parameters ΔG (the difference in free energy between the bound and free states), xβ (the width of the energy barrier), koff (the kinetic dissociation, or off- rate), and Kd (the dissociation constant) using the equations used in [34, 35].
Analysis of variance (ANOVA) testing was conducted on ΔG, xβ, koff, and Kd. Following the ANOVA test, a post hoc Welsh’s t-test was conducted to compare the parameters for the aqueous experiments compared to the copper experiments and for the aqueous environment experiments compared to the zinc experiments.

Aβ [1] = conditions: cited from earlier work
Source text: The role of metal ions on amyloid aggregation and toxicity has been studied extensively. […] Cu^2+ ions increase neurotoxicity by both accelerating amyloid aggregation and increasing oxidative stress. This increased propensity of Aβ to aggregate in a Cu^2+ rich environment has been attributed to Cu^2+ ions causing Aβ to move closer to its isoelectric point, thereby inducing aggregation. […] In this work, rather than determining the affinity of metal ions to the Aβ monomer, we calculated the self-affinity of two Aβ42 peptides in the presence of copper and zinc ions.

Aβ [2] = conditions: cited from earlier work; remark: listed apart in the source
Source text: Despite the well established effect ...

Aβ (1–42) = conditions: with Cu^2+ ions; cited from earlier work
Source text: Our previous results led us to hypothesize that since […] AD is largely a function of abnormal Aβ clearance, increased affinity of Aβ would make amyloid clearance considerably more problematic. In this work we used single molecule force spectroscopy (SMFS) to further elucidate the mechanism of the very initi ...

[Zn+2] [Zn^2+, zinc]
change of Aβ-Aβ self-affinity / dimer dissociation constant by metal ion (amyloid-β (1–42) (Aβ42)): decreases the affinity of Aβ-Aβ interactions by an order of magnitude | change of Aβ-Aβ self-affinity / dimer dissociation constant by metal ion (amyloid-β (1–42) (Aβ42); listed as zinc): decrease the affinity of Aβ-Aβ by an order of magnitude; also recorded: increases the dimer dissociation constant (which corresponds to a decreased monomer-monomer chemical affinity) by an order of magnitude | change of association rate (kon) of Aβ-Aβ vs aqueous control (amyloid-β (1–42) (Aβ42)): half an order of magnitude lower; also recorded: one-fifth of the control experiment | change of height of the energy barrier (amyloid-β (1–42) (Aβ42); with Zn^2+ 20 nM vs aqueous control): decreased the height of the energy barrier

[Cu+2] [Cu^2+, copper]
change of Aβ-Aβ self-affinity / dimer dissociation constant by metal ion (amyloid-β (1–42) (Aβ42); listed as copper): do not change the single molecule affinity of Aβ to another Aβ peptide in a statistically significant way; also recorded: does not change the dissociation constant by a statistically significant amount; also recorded: did not measure a significant effect | change of association rate (kon) of Aβ-Aβ vs aqueous control (amyloid-β (1–42) (Aβ42)): approximately half an order of magnitude higher; also recorded: approximately five times higher than the association rate in the control experiments | Cu^2+-Aβ affinity (Aβ [1]): nanomolar to picomolar range | Cu^2+-Aβ affinity (Aβ [1]; listed as Copper): nano- to picomolar range | nucleation and elongation of amyloid fibril formation (Aβ [2]; substoichiometric concentrations of Cu^2+ ions): induce acceleration in both the nucleation and elongation phases of amyloid fibril formation | Aβ aggregation onset (Aβ [2]; trace concentrations of copper vs aqueous without metal ions): Aβ begins to aggregate instantly compared to the characteristic lag period | unbinding force between two Aβ (1–42) peptides (Aβ (1–42)): increased the unbinding force between two Aβ (1–42) peptides

amyloid-β (1–42) [Aβ-Aβ]
ΔG (free energy difference between bound and unbound states) for Aβ-Aβ unbinding (amyloid-β (1–42) (Aβ42); aqueous HEPES 50 mM buffer, pH 7.4, 150 mM NaCl, no metal ion added): 7.83 ± 3.03 kBT | Kd (amyloid-β (1–42) (Aβ42); control, Aβ dimerization in HEPES buffer): 402 µM | Kd (amyloid-β (1–42) (Aβ42); with 20 nM Cu^2+): 173 µM | ΔG (free energy difference between bound and unbound states) for Aβ-Aβ unbinding (amyloid-β (1–42) (Aβ42); with Cu^2+ [20nM] in HEPES buffer pH 7.4): 8.66 ± 1.62 kBT | ΔG (free energy difference between bound and unbound states) for Aβ-Aβ unbinding (amyloid-β (1–42) (Aβ42); with Zn^2+ [20nM] in HEPES buffer pH 7.4): 4.89 ± 1.35 kBT
